Here are results for 19 molecules from patent US8178678B2, “Bis-quaternary ammonium salts and methods for modulating neuronal nicotinic acetylcholine receptors” (University of Kentucky Research Foundation, priority 2006, dated 2012).

pKi: −log10 of the molar value.

Assay [1] addresses T1, Rat Striatal Nicotinic Receptors ([^3H]MLA binding sites; α7) (Rattus norvegicus, UniProt Q05941).
T1 construct: Whole brain, excluding cortex and cerebellum, was homogenized in 20 vol of ice-cold buffer; from tissue; host or cells: rat brain membranes (whole brain excluding cortex and cerebellum)
Description: Inhibition of [^3H]MLA (methyllycaconitine) binding. The conditions noted are these: [^3H]MLA, nonspecific S-nicotine, rat brain membranes; for inhibition at 0.1 µM: read-out: [^3H]MLA binding, % inhibition. In a few lines:
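Rat brain membranes were washed by repeated centrifugation at 25,000 g, with a 10 min incubation at 37° C. in between. Samples of 250 μl, containing 100-140 μg of membrane protein, 3 nM [^3H]-methyllycaconitine and test analog in 50 mM Tris assay buffer, were incubated in 96-well plates for 60 min at room temperature. Nonspecific binding was defined with 10 μM S-nicotine. Bound radioactivity was collected on polyethylenimine-soaked GF/B filter plates and counted on a TopCount.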

Assay [2] deals with T2, Rat Striatal Nicotinic Receptors ([^3H]NIC binding sites; α4β2) (Rattus norvegicus, UniProt P09483+P12390).
T2 construct: Whole brain, excluding cortex and cerebellum, was homogenized in 20 vol of ice-cold buffer; from tissue; host or cells: rat brain membranes (whole brain excluding cortex and cerebellum)
T2 sequence (P09483 31-630): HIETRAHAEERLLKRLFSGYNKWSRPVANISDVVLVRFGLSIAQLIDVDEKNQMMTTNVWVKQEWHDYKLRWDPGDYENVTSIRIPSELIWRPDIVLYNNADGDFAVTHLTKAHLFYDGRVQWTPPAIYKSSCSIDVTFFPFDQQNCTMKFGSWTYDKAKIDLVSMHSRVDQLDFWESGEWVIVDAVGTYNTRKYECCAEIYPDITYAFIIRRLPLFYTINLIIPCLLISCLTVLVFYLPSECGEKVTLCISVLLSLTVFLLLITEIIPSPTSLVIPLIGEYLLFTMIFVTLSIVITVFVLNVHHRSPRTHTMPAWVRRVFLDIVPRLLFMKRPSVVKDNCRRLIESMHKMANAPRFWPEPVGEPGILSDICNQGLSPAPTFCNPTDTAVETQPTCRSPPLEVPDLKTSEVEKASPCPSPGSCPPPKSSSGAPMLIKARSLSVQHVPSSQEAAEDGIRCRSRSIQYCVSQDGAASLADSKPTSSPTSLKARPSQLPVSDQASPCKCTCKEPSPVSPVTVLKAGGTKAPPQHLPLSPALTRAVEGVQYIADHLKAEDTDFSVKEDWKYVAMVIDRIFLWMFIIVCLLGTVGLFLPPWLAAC
T2 sequence (P12390 25-500): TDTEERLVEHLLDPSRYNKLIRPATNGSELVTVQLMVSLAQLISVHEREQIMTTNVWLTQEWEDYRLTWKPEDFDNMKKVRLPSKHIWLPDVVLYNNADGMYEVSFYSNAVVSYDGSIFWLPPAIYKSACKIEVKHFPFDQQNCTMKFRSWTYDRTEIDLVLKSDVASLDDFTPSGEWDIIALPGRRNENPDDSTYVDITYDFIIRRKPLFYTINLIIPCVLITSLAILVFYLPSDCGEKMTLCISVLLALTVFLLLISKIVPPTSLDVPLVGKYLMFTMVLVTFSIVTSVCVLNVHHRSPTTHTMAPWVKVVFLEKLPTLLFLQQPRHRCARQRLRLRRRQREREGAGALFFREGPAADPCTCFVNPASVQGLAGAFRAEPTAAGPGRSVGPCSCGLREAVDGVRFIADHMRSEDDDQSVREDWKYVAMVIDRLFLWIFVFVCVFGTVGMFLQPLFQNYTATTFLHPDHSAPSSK
The experiment in a line: Inhibition of [^3H]NIC binding. The conditions noted are these: full concentration effect; 3 nM [^3H]NIC; nonspecific 10 μM cytisine; rat brain membranes; read-out: [^3H]NIC binding, Ki.

The subject of assay [3] is nicotinic receptors mediating S-nicotine-evoked [^3H]DA release in rat striatal slices. Description: Inhibition of S-nicotine-evoked [^3H]dopamine release from superfused rat striatal slices. It is filed as cell-based. The following applies: 100 nM analog superfused 60 min before NIC 10 μM, rat striatal slices; for inhibition at 0.1 µM: 1 h, read-out: [^3H]DA release, % inhibition of S-nicotine-evoked release. As for the experimental part:
Rat striatal slices (500 μm thickness, 6-8 mg wet weight) were incubated for 30 minutes in Krebs buffer (118 mM NaCl, 4.7 mM KCl, 1.2 mM MgCl2, 1.0 mM NaH2PO4, 1.3 mM CaCl2, 11.1 mM glucose, 25 mM NaHCO3, 0.11 mM L-ascorbic acid, and 0.004 mM disodium EDTA; pH 7.4, and saturated with 95% O2/5% CO2) in a metabolic shaker at 34° C. Slices were rinsed with 15 mL of fresh buffer and incubated for an additional 30 minutes in fresh buffer containing 0.1 μM [^3H]dopamine (DA; 6 slices/3 mL). Subsequently, slices were rinsed with 15 mL of fresh buffer and transferred to a glass superfusion chamber. Slices were superfused (1.0 mL/min) for 60 minutes with Krebs buffer containing nomifensine (10 μM) and pargyline (10 μM) and maintained at 34° C., pH 7.4, with continual aeration (95% O2/5% CO2). Two five minute samples (5 mL each) were collected to determine basal outflow of [^3H]DA. The bis-quaternary ammonium analogs were added to the superfusion buffer after the collection of the second sample and remained in the buffer until 12 consecutive five minute samples were collected. Subsequently, S-nicotine (NIC; 10 μM) was added to the buffer and an additional 12 consecutive five minute samples were collected. At the end of the experiment, each slice was solubilized and the [^3H] content of the tissue determined.
Radioactivity in the superfusate and tissue samples was determined by liquid scintillation spectroscopy. Fractional release for tritium collected in each sample was divided by the total tritium present in the tissue at the time of sample collection and was expressed as a percentage of total tritium. Basal [^3H]outflow was calculated from the average of the tritium collected in the two five minute samples just before addition of the quaternary analog. The sum of the increase in collected tritium resulting from either exposure to the test compound or exposure to S-nicotine in the absence and presence of the test compound equaled total [^3H]overflow. [^3H]Overflow was calculated by subtracting the [^3H]outflow during an equivalent period of prestimulation from the values in samples collected during and after drug exposure. Inasmuch as the radiolabelled compounds were not separated and identified, the tritium collected in superfusate is referred to as either [3H]outflow or [^3H]overflow, rather than as [^3H]DA. [^3H]Overflow primarily represents [^3H]DA in the presence of nomifensine and pargyline in the superfusion buffer.
The bis-quaternary ammonium analogs were also evaluated for their ability to inhibit NIC evoked [^3H]DA release. In these experiments, the striatal slices were superfused for 60 minutes with 100 nM concentration of the quaternary analogs prior to NIC (10 μM) exposure. Antagonist activity was evaluated by comparing the NIC-evoked [^3 H]overflow in the absence and presence of the analogs. The relative order of potency of the quaternary analogs for inhibition of NIC-evoked [^3H]DA release from rat striatal slices is illustrated in Table 1.
^aData are % inhibition at 100 nM concentration of the bis-quaternary ammonium analogs for at least 1-3 independent experiments; with the exception of when a Ki value in μM is provided, in which case a full concentration effect was evaluated. Specific binding in the [^3H]NIC binding assay is calculated as the difference between the total binding of 3 nM [^3H]NIC and nonspecific binding in the presence of 10 μM cold cytisine. Specific binding for the [^3H]MLA binding assay is calculated as the difference between the total binding of […] [^3H]MLA to the receptors alone and its nonspecific binding in the presence of […] cold S-nicotine. Analog-induced inhibition of S-nicotine-evoked [^3H]DA release is calculated as a percent of that in the absence of the bis-quaternary ammonium analog.

Assay [4] has as its target T2, Rat Striatal Nicotinic Receptors ([^3H]NIC binding sites; α4β2). The experiment in a line: Inhibition of [^3H]NIC binding. The conditions noted are these: 100 nM analog, 3 nM [^3H]NIC, nonspecific 10 μM cytisine, rat brain membranes; for inhibition at 0.1 µM: 1 h.

T1 sequence (Q05941 23-502): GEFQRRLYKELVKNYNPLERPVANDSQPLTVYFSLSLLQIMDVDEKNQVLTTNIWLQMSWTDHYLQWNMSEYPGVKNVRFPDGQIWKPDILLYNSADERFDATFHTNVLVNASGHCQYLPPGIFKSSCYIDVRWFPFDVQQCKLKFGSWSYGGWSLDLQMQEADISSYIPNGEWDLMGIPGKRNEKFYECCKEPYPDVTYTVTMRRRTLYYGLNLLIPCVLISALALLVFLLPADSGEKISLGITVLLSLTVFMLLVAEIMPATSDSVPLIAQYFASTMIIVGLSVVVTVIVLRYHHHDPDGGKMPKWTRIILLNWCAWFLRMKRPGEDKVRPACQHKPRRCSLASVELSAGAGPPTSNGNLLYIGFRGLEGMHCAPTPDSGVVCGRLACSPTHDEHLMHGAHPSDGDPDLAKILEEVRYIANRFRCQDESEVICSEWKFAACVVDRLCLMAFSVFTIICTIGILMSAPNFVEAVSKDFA

Turning to `c1cc2c([n+](CCCCc3ccc(CCCC[n+]4cccc5c4CCCC5)cc3)c1)CCCC2` [Example 15, N,N′-[1,4-phenylenedi-(4-butanyl)]-bis-(5,6,7,8-tetrahydroquinolinium)dibromide], the negative-log Ki (pKi) is 5.11 in assay [1] (full concentration effect, read-out: [^3H]MLA binding, Ki) and 4.92 in assay [2].

As to `Cc1cc[n+](CCC#Cc2ccc(C#CCC[n+]3ccc(C)c(C)c3)cc2)cc1C` [Example 100, N,N′-[(1,4-phenylene)-bis-(4-butynyl)]-bis-(3,4-dimethyl-pyridinium)dibromide], the inhibition at 0.1 µM in assay [1] (100 nM analog) is 0%; in assay [3] it was 31%; in assay [4], 3%.

As for `Cc1cc[n+](CCCCCc2cccc(CCCCC[n+]3ccc(C)c(C)c3)c2)cc1C` [Example 66, 1,3-bis-[5-(3,4dimethyl-pyridinium)-pentyl]-benzene dibromide], the inhibition at 0.1 µM in assay [1] (100 nM analog) worked out at 7%; in assay [3], 35%; in assay [4], 10.5%.

With `Cc1cc(C)c[n+](CCCCCc2cccc(CCCCC[n+]3cc(C)cc(C)c3)c2)c1` [Example 67, 1,3-bis-[5-(3,5-dimethyl-pyridinium)-pentyl]-benzene dibromide], the inhibition at 0.1 µM in assay [1] (100 nM analog) came to 1.4%; in assay [3], 34%; in assay [4], 4.8%.

Turning to `Cc1ccc[n+](CCCCCc2ccccc2CCCCC[n+]2cccc(C)c2)c1` [Example 35, 1,2-bis-[5-(3-methyl-pyridinium)-pentyl]-benzene dibromide], the figures for the inhibition at 0.1 µM in assay [1] (100 nM analog), in assay [3] and in assay [4] were 5.4%, 25% and 0%, respectively.

On to `Cc1ccc[n+](CCCC#Cc2cccc(C#CCCC[n+]3cccc(C)c3)c2)c1` [Example 49, 1,3-bis-[5-(3-methyl-pyridinium)-pent-1-ynyl]-benzene dibromide], for which the results for the inhibition at 0.1 µM in assay [1] (100 nM analog), in assay [3] and in assay [4] were 8%, 6% and 0.5%, respectively.

For the molecule `Cc1cc[n+](CCCC#Cc2cccc(C#CCCC[n+]3ccc(C)cc3)c2)cc1` [Example 50, 1,3-bis-[5-(4-methyl-pyridinium)-pent-1-ynyl]-benzene dibromide], the inhibition at 0.1 µM in assay [1] (100 nM analog) was found to be 6.4%; in assay [3] it was 26%; in assay [4], 10%.

Consider `CN1CCC[C@@H]1c1ccc[n+](CCCC#Cc2cccc(C#CCCC[n+]3cccc([C@H]4CCCN4C)c3)c2)c1` [Example 56, 1,3-bis-[5(2′-S-nicotinium-pent-1-ynyl)]benzene dibromide], for which the results for the inhibition at 0.1 µM in assay [1] (100 nM analog), in assay [3] and in assay [4] were 2.6%, 18% and 3.1%, respectively.

For `Cc1ccc[n+](CCCCCc2cccc(CCCCC[n+]3cccc(C)c3)c2)c1` [Example 63, 1,3-bis-[5-(3-methyl-pyridinium)-pentyl]-benzene dibromide], the inhibition at 0.1 µM in assay [1] (100 nM analog) is 6.24%; in assay [3], 45%; in assay [4], 3.5%.

For the molecule `Cc1cc[n+](CCCC#Cc2ccccc2C#CCCC[n+]2ccc(C)cc2)cc1` [Example 25, 1,2-bis-[5-(4-methyl-pyridinium)-pent-1-ynyl]-benzene dibromide], the inhibition at 0.1 µM turned out to be 5.4% in assay [1] (100 nM analog), 12% in assay [3] and 2.5% in assay [4].

For the molecule `Cc1cc[n+](CCCCCc2cccc(CCCCC[n+]3ccc(C)cc3)c2)cc1` [Example 64, 1,3-bis-[5-(4-methyl-pyridinium)-pentyl]-benzene dibromide], the inhibition at 0.1 µM came to 3.5% in assay [1] (100 nM analog), 27% in assay [3] and 4.6% in assay [4].

As for `C(#Cc1cccc(C#CCCC[n+]2cccc(-c3ccccc3)c2)c1)CCC[n+]1cccc(-c2ccccc2)c1` [Example 58, 1,3-bis-[5-(3-phenyl-pyridinium)-pent-1-ynyl]-benzene dibromide], the inhibition at 0.1 µM in assay [1] (100 nM analog) was found to be 11%; in assay [3], 8%; in assay [4], 3.4%.

With `Cc1cc(C)c[n+](CCCC#Cc2ccccc2C#CCCC[n+]2cc(C)cc(C)c2)c1` [Example 28, 1,2-bis-[5-(3,5-dimethyl-pyridinium)-pent-1-ynyl]-benzene dibromide], the inhibition at 0.1 µM in assay [1] (100 nM analog) worked out at 5%; in assay [3] it was 19%; in assay [4], 1.3%.

Turning to `Cc1cc[n+](CCCC#Cc2ccccc2C#CCCC[n+]2ccc(C)c(C)c2)cc1C` [Example 27, 1,2-bis-[5-(3,4-dimethyl-pyridinium)-pent-1-ynyl]-benzene dibromide], the inhibition at 0.1 µM is 4.2% in assay [1] (100 nM analog), 23% in assay [3] and 4.2% in assay [4].

As for `c1ccc(CCCCC[n+]2cccc3ccccc32)c(CCCCC[n+]2cccc3ccccc32)c1` [Example 40, 1,2-bis-(5-quinolinium-pentyl)-benzene dibromide], the figures for the inhibition at 0.1 µM in assay [1] (100 nM analog), in assay [3] and in assay [4] were 6.3%, 24% and 0%, respectively.

Take `c1cc(CCCCC[n+]2ccc3ccccc3c2)cc(CCCCC[n+]2ccc3ccccc3c2)c1` [Example 69, 1,3-bis-(5-isoquinolinium-pentyl)-benzene dibromide]: the inhibition at 0.1 µM in assay [1] (100 nM analog) worked out at 5.2%; in assay [3] it was 0%; in assay [4], 8.8%.

On to `Cc1cccc[n+]1CCCCCc1cccc(CCCCC[n+]2ccccc2C)c1` [Example 62, 1,3-bis-[5-(2-methyl-pyridinium)-pentyl]-benzene dibromide], for which the inhibition at 0.1 µM in assay [1] (100 nM analog) was determined as 0%; in assay [3], 62%; in assay [4], 7.2%.

With “N,N′-[(1,1′-biphenyl)-4,4′-di-(3-propanyl)]-bis-[3-(2′-S-1-methyl-pyrrolidin-2-yl)-pyridinium]dibromide [Example 70]”, the “[^3H]MLA binding, % inhibition” value in assay [1] (100 nM analog) came out at 11%. In assay [3], the “[^3H]DA release, % inhibition of S-nicotine-evoked release” value was 8%. In addition, the “[^3H]NIC binding, % inhibition” value in assay [4] was found to be 12%.

`Brc1ccc[n+](CCCCCc2ccccc2CCCCC[n+]2cccc(Br)c2)c1` [Example 44, 1,2-bis-[5-(3-bromo-pyridinium)-pentyl]-benzene dibromide]: the inhibition at 0.1 µM in assay [1] (100 nM analog) amounted to 0.9%; in assay [3], 7%; in assay [4], 2.9%.

By pKi is commonly meant −log10 of the Ki, conventionally taken in molar units. Usually inhibition stands for how much of the control response was suppressed.
